We go through 12 compounds from ChEMBL document CHEMBL1201862, “PubChem BioAssay data set” (2004).

Among the test systems are 786-0; LOX IMVI; UACC-257; NCI-H226; IGROV-1; EKVX; OVCAR-3; SF-268; HOP-92; HCC 2998; COLO 205; U-251; SF-295; A549; HL-60; HCT-15; NCI/ADR-RES; MDA-MB-435; DU-145.
Common to all, as to experiment: NCI tumour cell line growth inhibition, 48 h

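The compound was tested at five concentrations on cells cultured in 96-well plates, with a 48-hour exposure period. GI50 = concentration required for 50% inhibition of growth.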 Calls of active or inactive are those of the source. No stated cut-off is given here; in the data, active = GI50 up to about 1.1 µM and inactive = higher.

As to `COc1ccc(NC(=O)COC(=O)c2cccc3c(=O)c4ccccc4[nH]c23)cc1`, the GI50 in the assay on 786-0 was 19.1 µM (inactive); in the assay on LOX IMVI, 15 µM (inactive); in the assay with UACC-257, 19.9 µM (inactive); with NCI-H226, 23.1 µM (inactive); in the assay with IGROV-1, 27.4 µM (inactive); in the assay on EKVX it was 18.4 µM (inactive). Besides, the GI50 is 22.1 µM (inactive) in the assay with OVCAR-3; 22.3 µM (inactive) in the assay with SF-268; 25.1 µM (inactive) with HOP-92; 51.1 µM (inactive) in the assay with HCC 2998; 17.8 µM (inactive) with COLO 205; 19.5 µM (inactive) in the assay with U-251. For the same compound, the values for the GI50 in the assay with SF-295, in the assay on A549 and in the assay with HL-60 were 19.5 µM (inactive), 20.3 µM (inactive) and 13.1 µM (inactive), respectively.

As for `COc1ccc([C@@H]2OC(=O)C3C2C(=O)O[C@H]3c2ccc(OC)c(OC)c2)cc1OC` (stereo partly specified), the GI50 with 786-0 was > 100 µM (inactive); in the assay with LOX IMVI it was > 100 µM (inactive); with HCT-15, > 100 µM; in the assay on UACC-257, > 100 µM (inactive); with NCI-H226 it was > 100 µM (inactive); with IGROV-1 it was > 100 µM (inactive). The GI50 in the assay with EKVX, in the assay on OVCAR-3, in the assay with SF-268, with HOP-92, in the assay with HCC 2998 and in the assay on COLO 205 was > 100 µM (inactive) in each case. The GI50 with U-251, in the assay on SF-295, in the assay on A549 and in the assay on HL-60 was > 100 µM (inactive) in each case.

Take `N#C/C(=C\c1cc2ccccc2c2ccccc12)c1ccccc1`: the GI50 with 786-0 was 5.43 µM (inactive); in the assay with LOX IMVI it was 9.51 µM (inactive); in the assay on HCT-15 it was 5.24 µM; in the assay with UACC-257, 9.62 µM (inactive); with NCI-H226 it was 43.8 µM (inactive); in the assay with IGROV-1 it was 11.8 µM (inactive). For the same compound, the GI50 is 20 µM (inactive) in the assay with EKVX; 3.45 µM (inactive) in the assay on OVCAR-3; 8.17 µM (inactive) with SF-268; > 37.6 µM (inactive) in the assay on HOP-92; 11 µM (inactive) in the assay on HCC 2998; 3.43 µM (inactive) with COLO 205. The GI50 in the assay on U-251 was 5.78 µM (inactive); in the assay on SF-295, 5.93 µM (inactive); with A549, 7.46 µM (inactive); in the assay on HL-60, 3.04 µM (inactive).

As to `O=C(N/N=C(/c1nc2ccc(Cl)cc2[nH]c1=O)C(O)c1ccc(Cl)cc1Cl)c1ccncc1` (stereo unspecified), the GI50 is > 100 µM (inactive) with 786-0; > 100 µM (inactive) in the assay on LOX IMVI; > 100 µM with HCT-15; > 100 µM (inactive) with UACC-257; > 100 µM (inactive) in the assay on NCI-H226; > 100 µM (inactive) with IGROV-1. The GI50 in the assay with EKVX, in the assay with OVCAR-3, with SF-268, with HOP-92, in the assay with HCC 2998 and in the assay on COLO 205 was > 100 µM (inactive) in each case. In addition, the GI50 with U-251, in the assay with SF-295, in the assay with A549 and in the assay with HL-60 was > 100 µM (inactive) throughout.

Consider `COC1=C(Br)C(=O)c2nc(C)ccc2C1=O`, for which the GI50 with 786-0 was 14.1 µM (inactive); in the assay with LOX IMVI, 8.39 µM (inactive); with HCT-15, 14.1 µM; with UACC-257, 13.6 µM (inactive); in the assay on NCI-H226 it was 22.8 µM (inactive); with IGROV-1, 19.6 µM (inactive). Also, the GI50 in the assay on EKVX was 19.3 µM (inactive); in the assay with OVCAR-3 it was 7.46 µM (inactive); in the assay on SF-268, 17.5 µM (inactive); in the assay with HOP-92, 7.18 µM (inactive); in the assay with HCC 2998 it was 18.1 µM (inactive); in the assay with COLO 205, 12.1 µM (inactive). Further, the GI50 in the assay with U-251 is 15.1 µM (inactive); in the assay on SF-295 it was 20.4 µM (inactive); with A549 it was 20.3 µM (inactive); with HL-60, 0.993 µM (active).

Regarding `CC(Oc1ccc2c(=O)cc(-c3ccccc3)oc2c1)C(=O)O` (stereo unspecified), the GI50 with 786-0, with LOX IMVI, in the assay with UACC-257, in the assay on NCI-H226, in the assay with IGROV-1 and in the assay with EKVX was > 100 µM (inactive) throughout. Besides, the GI50 with OVCAR-3, in the assay with SF-268, with HOP-92, in the assay with HCC 2998, with COLO 205 and in the assay on U-251 was > 100 µM (inactive) in each case. The GI50 in the assay on SF-295, in the assay on A549 and with HL-60 was > 100 µM (inactive) each time.

Turning to `CC(=O)C1=C(C)Cn2c(=O)c3ccccc3c(=O)n2C1`, the GI50 in the assay on 786-0 is > 100 µM (inactive); with LOX IMVI it was > 100 µM (inactive); in the assay on HCT-15, > 100 µM; in the assay on UACC-257, > 100 µM (inactive); in the assay with NCI-H226, > 100 µM (inactive); in the assay with IGROV-1 it was > 100 µM (inactive). Also, the GI50 with EKVX, in the assay on OVCAR-3, with SF-268, in the assay on HOP-92, in the assay with HCC 2998 and in the assay with COLO 205 was > 100 µM (inactive) in each case. Besides, the GI50 with U-251, in the assay on SF-295, in the assay on A549 and in the assay with HL-60 was > 100 µM (inactive) throughout.

In the case of `COc1cc(C2C(C(=O)Nc3ccc([N+](=O)[O-])cc3)=C(C)NC(C)=C2C(=O)Nc2ccc([N+](=O)[O-])cc2)ccc1O`, the GI50 in the assay on 786-0 was 29.1 µM (inactive); in the assay with LOX IMVI, 14.6 µM (inactive); with HCT-15, 19.1 µM; in the assay with UACC-257, 24.2 µM (inactive); with NCI-H226, 24.2 µM (inactive); in the assay on IGROV-1 it was 24.9 µM (inactive). For the same compound, the GI50 is 39.1 µM (inactive) in the assay with EKVX; 22.7 µM (inactive) in the assay on OVCAR-3; 23.2 µM (inactive) in the assay with SF-268; 16.4 µM (inactive) in the assay on HOP-92; 18.4 µM (inactive) with HCC 2998; 16.4 µM (inactive) in the assay on COLO 205. Moreover, the GI50 is 16.8 µM (inactive) with U-251, 24.7 µM (inactive) in the assay with SF-295, 37.6 µM (inactive) in the assay on A549 and 0.515 µM (active) in the assay with HL-60.

Turning to `CC(=O)N1C/C(=C\c2ccc(N(C)C)cc2)C(=O)/C(=C/c2ccc(N(C)C)cc2)C1`, the GI50 in the assay on 786-0 is 39.4 µM (inactive); with LOX IMVI, 35.3 µM (inactive); with HCT-15, > 100 µM; in the assay on UACC-257, 47.4 µM (inactive); with NCI-H226, 57.9 µM (inactive); with IGROV-1, 53.2 µM (inactive). The GI50 was 20.4 µM (inactive) in the assay with OVCAR-3; 66.2 µM (inactive) in the assay on SF-268; > 100 µM (inactive) in the assay on HOP-92; 58.2 µM (inactive) in the assay on HCC 2998; > 10 µM (inactive) in the assay on COLO 205; 31.1 µM (inactive) in the assay on U-251. Further, the GI50 with SF-295 is 52.6 µM (inactive); in the assay on A549, > 100 µM (inactive); in the assay on HL-60, 29.9 µM (inactive).

Consider `c1ccc2c(c1)sc1c3cnccc3ccc21`, for which the GI50 in the assay on 786-0 is > 100 µM (inactive); in the assay on LOX IMVI, 71.6 µM (inactive); in the assay with HCT-15 it was > 100 µM; with UACC-257 it was 56.6 µM (inactive); with NCI-H226, 24.2 µM (inactive); in the assay with IGROV-1, 25.3 µM (inactive). In addition, the GI50 in the assay with EKVX was 6.71 µM (inactive); in the assay on NCI/ADR-RES, > 100 µM (inactive); in the assay on OVCAR-3, > 100 µM (inactive); with SF-268, > 100 µM (inactive); in the assay on HCC 2998 it was > 100 µM (inactive); in the assay on COLO 205, 90.8 µM (inactive). In addition, the GI50 with MDA-MB-435 was > 100 µM (inactive); in the assay with U-251, > 100 µM (inactive); in the assay on DU-145 it was > 100 µM (inactive); in the assay on SF-295 it was 85.9 µM (inactive); with A549 it was 33.7 µM (inactive); in the assay with HL-60, 40.6 µM (inactive).

As for `Cc1ccc(C)c(N2C(=O)C(=O)C(c3nc4ccccc4s3)C(=O)C2=O)c1`, the GI50 in the assay on 786-0 is > 100 µM (inactive); in the assay on LOX IMVI, > 100 µM (inactive); in the assay with HCT-15 it was > 100 µM; in the assay with UACC-257, > 100 µM (inactive); with NCI-H226, > 100 µM (inactive); in the assay with IGROV-1, > 100 µM (inactive). Moreover, the GI50 in the assay with EKVX, in the assay with OVCAR-3, with SF-268, in the assay on HOP-92, with HCC 2998 and in the assay with COLO 205 was > 100 µM (inactive) throughout. Besides, the GI50 with U-251 was 83.8 µM (inactive); in the assay on SF-295, > 100 µM (inactive); with A549, > 100 µM (inactive); in the assay on HL-60, > 100 µM (inactive).

As to `Brc1ccc(/C=N/C23CC4CC(CC(C4)C2)C3)cc1`, the GI50 in the assay on 786-0 is > 100 µM (inactive); in the assay with LOX IMVI it was > 100 µM (inactive); in the assay on HCT-15, > 100 µM; in the assay with UACC-257 it was > 100 µM (inactive); with NCI-H226, > 100 µM (inactive); in the assay with IGROV-1, > 100 µM (inactive). Moreover, the GI50 with EKVX, with OVCAR-3, in the assay on SF-268, in the assay on HOP-92, with HCC 2998 and in the assay on COLO 205 was > 100 µM (inactive) in each case. Moreover, the GI50 with U-251, in the assay with SF-295, in the assay on A549 and in the assay with HL-60 was > 100 µM (inactive) in each case.
